Experiment: mn = molality of the nth substance listed, in mol/kg
Conditions: 303.15 K, 84.5 kPa, Liquid; for electrical conductivity: Alternating current cell with electrodes; for speed of sound: Frequency=3 MHz, Sing-around technique in a fixed-path interferometer

CCCCCCCCCCn1cc[n+](C)c1.[Br-] [1-decyl-3-methylimidazolium bromide] + O
Conditions | electrical conductivity [S/m] | speed of sound [m/s]
m1 = 7e-05 | 0.000835 | –
m1 = 8e-05 | 0.001 | –
m1 = 0.00015 | 0.00183 | –
m1 = 0.00023 | 0.00267 | –
m1 = 0.00038 | 0.00443 | –
m1 = 0.00053 | 0.00608 | –
m1 = 0.00082 | 0.00939 | –
m1 = 0.00142 | 0.016 | –
m1 = 0.0023 | 0.0256 | –
m1 = 0.00351 | 0.0384 | –
m1 = 0.00463 | 0.0502 | –
m1 = 0.00617 | 0.0665 | –
m1 = 0.00896 | 0.0945 | –
m1 = 0.0095 | – | 1510.8
m1 = 0.01168 | 0.121 | –
m1 = 0.01379 | – | 1511.6
m1 = 0.01458 | 0.148 | –
m1 = 0.01652 | – | 1512
m1 = 0.01746 | 0.175 | –
m1 = 0.01986 | 0.197 | –
m1 = 0.02179 | – | 1512.8
m1 = 0.02235 | 0.218 | –
m1 = 0.0248 | 0.24 | –
m1 = 0.02615 | – | 1513.5
m1 = 0.0272 | 0.26 | –
m1 = 0.02958 | 0.28 | –
m1 = 0.03106 | – | 1514.3
m1 = 0.03192 | 0.299 | –
m1 = 0.03338 | – | 1514.7
m1 = 0.03356 | 0.312 | –
m1 = 0.0353 | 0.326 | –
m1 = 0.03765 | 0.345 | –
m1 = 0.03819 | – | 1515.4
m1 = 0.03995 | 0.361 | –
m1 = 0.0406 | – | 1515.5
m1 = 0.04173 | 0.373 | –
m1 = 0.04332 | – | 1515.8
m1 = 0.0437 | 0.385 | –
m1 = 0.04561 | 0.393 | –
m1 = 0.04614 | – | 1516
m1 = 0.0476 | 0.401 | –
m1 = 0.04986 | 0.409 | –
m1 = 0.05209 | 0.416 | –
m1 = 0.05436 | 0.423 | –
m1 = 0.05515 | – | 1516.2
m1 = 0.05698 | 0.43 | –
m1 = 0.0591 | 0.436 | –
m1 = 0.06148 | 0.443 | –
m1 = 0.06396 | – | 1516.2
m1 = 0.07815 | – | 1516.2
m1 = 0.122 | – | 1516.1
m1 = 0.1726 | – | 1516
m1 = 0.2247 | – | 1516
m1 = 0.2539 | – | 1515.9
